PubChem BioAssay AID248 (DTP/NCI, 2004)
“And” between values parts separate entries of the source, which are not always exact repeats. Equal values may be shown once. Inconclusive results and toxic doses are left out. Cut-off read from the data, not from the text of the source: active = T/C of 150% or more; inactive = T/C below 125%.

Tested on: L1210 leukemia ip in BDF1 mice, survival T/C
Assay: NCI In Vivo Anticancer Drug Screen. Data for tumor model L1210 Leukemia (intraperitoneal) in B6D2F1 (BDF1) mice
Settings: endpoint: mean survival time, higher = longer survival
Method in brief: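 In this screen, tumor-bearing mice given compound are compared to those given vehicle, and their survival values are reported as a treated-to-control quotient.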

[1] = dose: 100.0 mg/kg/injection, schedule: Q01DX001 (ip), vehicle: saline
[2] = dose: 100.0 mg/kg/injection, schedule: Q01DX001 (ip), vehicle: carboxymethylcellulose (CMC)
[3] = dose: 200.0 mg/kg/injection, schedule: Q01DX001 (ip), vehicle: carboxymethylcellulose (CMC)
[4] = dose: 400.0 mg/kg/injection, schedule: Q01DX001 (ip), vehicle: carboxymethylcellulose (CMC)
[5] = dose: 100.0 mg/kg/injection, schedule: Q04DX002 (ip), vehicle: saline
[6] = dose: 200.0 mg/kg/injection, schedule: Q04DX002 (ip), vehicle: saline
[7] = dose: 400.0 mg/kg/injection, schedule: Q04DX002 (ip), vehicle: saline
[8] = dose: 200.0 mg/kg/injection, schedule: Q01DX001 (ip), vehicle: saline
[9] = dose: 400.0 mg/kg/injection, schedule: Q01DX001 (ip), vehicle: saline
[10] = dose: 100.0 mg/kg/injection, schedule: Q01DX009 (ip), vehicle: Klucel (hydroxypropylcellulose) (HPC)
[11] = dose: 100.0 mg/kg/injection, schedule: Q04DX003 (ip), vehicle: Klucel (hydroxypropylcellulose) (HPC)
[12] = dose: 200.0 mg/kg/injection, schedule: Q01DX009 (ip), vehicle: Klucel (hydroxypropylcellulose) (HPC)
[13] = dose: 200.0 mg/kg/injection, schedule: Q04DX003 (ip), vehicle: Klucel (hydroxypropylcellulose) (HPC)
[14] = dose: 400.0 mg/kg/injection, schedule: Q01DX009 (ip), vehicle: Klucel (hydroxypropylcellulose) (HPC)
[15] = dose: 400.0 mg/kg/injection, schedule: Q04DX003 (ip), vehicle: Klucel (hydroxypropylcellulose) (HPC)
[16] = dose: 100.0 mg/kg/injection, schedule: Q01DX001 (ip), vehicle: Klucel (hydroxypropylcellulose) (HPC)
[17] = dose: 50.0 mg/kg/injection, schedule: Q01DX001 (ip), vehicle: saline
[18] = dose: 25.0 mg/kg/injection, schedule: Q04DX003 (ip), vehicle: Klucel (hydroxypropylcellulose) (HPC)
[19] = dose: 50.0 mg/kg/injection, schedule: Q04DX003 (ip), vehicle: Klucel (hydroxypropylcellulose) (HPC)
[20] = dose: 50.0 mg/kg/injection, schedule: Q04DX002 (ip), vehicle: saline with Tween-80
[21] = dose: 100.0 mg/kg/injection, schedule: Q04DX002 (ip), vehicle: saline with Tween-80
[22] = dose: 100.0 mg/kg/injection, schedule: Q01DX009 (ip), vehicle: saline with Tween-80

Measured: T/C

CCCCCCCCCCCCOP(OCCCCCCCCCCCC)OCCCCCCCCCCCC
inactive: dose: 100.0 mg/kg/injection, schedule: Q01DX009 (ip), vehicle: saline 90 % of control | dose: 200.0 mg/kg/injection, schedule: Q01DX009 (ip), vehicle: saline 88 % of control | dose: 400.0 mg/kg/injection, schedule: Q01DX009 (ip), vehicle: saline 93 % of control

COc1ccc(OC)c2ncccc12
inactive: [1] 104 % of control

O=C(O)/C=C\C(=O)Nc1ccc2c(c1)Cc1cc(Cl)ccc1-2
inactive: dose: 100.0 mg/kg/injection, schedule: Q04DX003 (ip), vehicle: saline with Tween-80 92 % of control | dose: 200.0 mg/kg/injection, schedule: Q04DX003 (ip), vehicle: saline with Tween-80 87 % of control

O=C(O)CCC(c1ccccc1)(c1ccccc1)c1ccccc1
inactive: [2] 95 % of control | [3] 95 % of control | [4] 101 % of control

CCC(C)(c1ccc(O)cc1)c1ccc(O)cc1
inactive: [5] 103 % of control | [6] 97 % of control | [7] 103 % of control

CCOC(=O)c1cnc(SCC)nc1N
inactive: dose: 100.0 mg/kg/injection, schedule: Q04DX003 (ip), vehicle: saline 101 % of control | dose: 200.0 mg/kg/injection, schedule: Q04DX003 (ip), vehicle: saline 98 % of control | dose: 400.0 mg/kg/injection, schedule: Q04DX003 (ip), vehicle: saline 103 % of control

O=C(Nc1ccc(S(=O)(=O)NC2CCCCC2)cc1)OC1CCCCCCC1
inactive: [1] 89 % of control | [8] 94 % of control | [9] 96 % of control

CC(=O)Nc1ccc(C=Nc2ccccc2)cc1
inactive: [10] 107 % of control | [11] 96 % of control | [12] 102 % of control | [13] 97 % of control | [14] 111 % of control | [15] 97 % of control

COc1ccccc1C1CCCCC1OS(C)(=O)=O (stereo unspecified)
inactive: [2] 103 % of control | [3] 111 % of control | [4] 92 % of control

N/N=C\C=N\N
inactive: dose: 15.0 mg/kg/injection, schedule: Q01DX Z (ip), vehicle: saline 107 % of control | dose: 30.0 mg/kg/injection, schedule: Q01DX Z (ip), vehicle: saline 107 % of control | dose: 60.0 mg/kg/injection, schedule: Q01DX Z (ip), vehicle: saline 107 % of control

CCCCCCCCCCCCCCCCCC[N+]1(Cc2ccccc2)CCOCC1
inactive: [16] 110 % of control

CCC(/C=C1\Oc2ccc(-c3ccccc3)cc2N1CC)=C\c1oc2ccc(-c3ccccc3)cc2[n+]1CC
inactive: dose: 0.1 mg/kg/injection, schedule: Q01DX009 (ip), vehicle: other 102 % of control | dose: 0.3 mg/kg/injection, schedule: Q01DX009 (ip), vehicle: other 110 % of control | dose: 0.6 mg/kg/injection, schedule: Q01DX009 (ip), vehicle: other 116 % of control | dose: 0.62 mg/kg/injection, schedule: Q01DX009 (ip), vehicle: saline 111 % of control | dose: 1.2 mg/kg/injection, schedule: Q01DX009 (ip), vehicle: other 116 % of control | dose: 1.25 mg/kg/injection, schedule: Q01DX009 (ip), vehicle: saline 108 % of control | dose: 2.5 mg/kg/injection, schedule: Q01DX009 (ip), vehicle: saline 114 % of control | dose: 2.6 mg/kg/injection, schedule: Q01DX009 (ip), vehicle: other 122 % of control | dose: 5.0 mg/kg/injection, schedule: Q01DX009 (ip), vehicle: saline 103 % of control | dose: 19.0 mg/kg/injection, schedule: Q01DX001 (ip), vehicle: other 109 % of control

C=CCOCC(O)COP(=O)(O)O (stereo unspecified) (tested in a mixture with another compound)
inactive: [17] 111 % of control and 107 % of control and 97 % of control | [1] 100 % of control and 107 % of control and 103 % of control | [8] 100 % of control and 97 % of control and 103 % of control | [9] 94 % of control and 103 % of control

CCN(CC)CCN(CCO)Cc1ccccc1
inactive: [18] 98 % of control | dose: 50.0 mg/kg/injection, schedule: Q01DX009 (ip), vehicle: Klucel (hydroxypropylcellulose) (HPC) 92 % of control | [19] 96 % of control | [10] 100 % of control | [11] 98 % of control and 101 % of control

Cc1cc(C)c(C[N+](C)(C)C)c(C)c1C
inactive: [17] 102 % of control

CC1CCCCN1Cc1ccccc1COC(=O)c1cccc(Cl)c1 (stereo unspecified)
inactive: dose: 25.0 mg/kg/injection, schedule: Q04DX002 (ip), vehicle: other 98 % of control | dose: 50.0 mg/kg/injection, schedule: Q04DX002 (ip), vehicle: other 113 % of control | [20] 91 % of control | dose: 100.0 mg/kg/injection, schedule: Q04DX002 (ip), vehicle: other 88 % of control | [21] 94 % of control and 86 % of control | dose: 400.0 mg/kg/injection, schedule: Q04DX002 (ip), vehicle: saline with Tween-80 101 % of control

C1=NC(c2ccccc2)=CN(C2CCCC2)C1(c1ccccc1)C1CCCC1 (stereo unspecified)
inactive: dose: 50.0 mg/kg/injection, schedule: Q04DX002 (ip), vehicle: saline 105 % of control | dose: 100.0 mg/kg/injection, schedule: Q04DX002 (ip), vehicle: Klucel (hydroxypropylcellulose) (HPC) 98 % of control | [5] 108 % of control | dose: 200.0 mg/kg/injection, schedule: Q04DX002 (ip), vehicle: Klucel (hydroxypropylcellulose) (HPC) 98 % of control | [6] 108 % of control | dose: 400.0 mg/kg/injection, schedule: Q04DX002 (ip), vehicle: Klucel (hydroxypropylcellulose) (HPC) 109 % of control

CCCCCCCCCCCCCCCCCC(=O)OCC1(COC(=O)CCCCCCCCCCCCCCCCC)COC(CCCCCCCCCCCCCCCCC)=N1
inactive: [16] 92 % of control | dose: 200.0 mg/kg/injection, schedule: Q01DX001 (ip), vehicle: Klucel (hydroxypropylcellulose) (HPC) 95 % of control | dose: 400.0 mg/kg/injection, schedule: Q01DX001 (ip), vehicle: Klucel (hydroxypropylcellulose) (HPC) 109 % of control

CN(C)c1ccc(C=Nc2cc([N+](=O)[O-])ccc2O)cc1
inactive: [1] 96 % of control | [8] 92 % of control | [9] 91 % of control

COc1ccc(C(=O)C(C)C)cc1
inactive: dose: 37.5 mg/kg/injection, schedule: Q01DX009 (ip), vehicle: saline sonified 95 % of control | dose: 75.0 mg/kg/injection, schedule: Q01DX009 (ip), vehicle: saline sonified 93 % of control | dose: 150.0 mg/kg/injection, schedule: Q01DX009 (ip), vehicle: saline sonified 103 % of control

O=C(Nc1cccc(C(F)(F)F)c1)Oc1ccc(Cl)cc1Cc1ccccc1
inactive: [22] 98 % of control | dose: 200.0 mg/kg/injection, schedule: Q01DX009 (ip), vehicle: saline with Tween-80 93 % of control | dose: 400.0 mg/kg/injection, schedule: Q01DX009 (ip), vehicle: saline with Tween-80 92 % of control

CCN(CC)c1cc(Cl)c(C=O)cc1Br
inactive: [10] 98 % of control | [11] 105 % of control | [12] 100 % of control | [13] 98 % of control | [14] 100 % of control | [15] 104 % of control

COc1ccc(OC)c(NC(=O)Oc2ccc3ccccc3c2)c1
inactive: [5] 93 % of control | [6] 101 % of control | [7] 96 % of control

Cc1ccc(NSC(Cl)(Cl)Cl)cc1
inactive: [20] 101 % of control | [21] 106 % of control and 108 % of control | dose: 200.0 mg/kg/injection, schedule: Q04DX002 (ip), vehicle: saline with Tween-80 98 % of control and 123 % of control

CC(=O)c1ccc(OC(=O)Nc2ccccc2F)cc1
inactive: dose: 25.0 mg/kg/injection, schedule: Q01DX009 (ip), vehicle: saline with Tween-80 112 % of control | dose: 50.0 mg/kg/injection, schedule: Q01DX009 (ip), vehicle: saline with Tween-80 111 % of control | [22] 96 % of control and 110 % of control

C=CCc1cc(CNCCCO)c(O)c(OC)c1
inactive: [18] 93 % of control | [19] 95 % of control | [11] 93 % of control
